# Source: patent US20100034839A1, “METHODS FOR TREATING VIRAL DISORDERS” (priority 2008, published 2010)
# What was measured:
# [1] = tested on: cell surface CLIP on Raji and Daudi cells; assay: Competition of synthetic peptides with cell surface CLIP (Fitc anti-human CLIP); format: cell-based; details: biotinylated competing peptide
# From the text: Based on a computational model comparing the peptide content of TNP mixture and identifying those peptides that would have the likeliest ability to compete for the peptide/antigen binding site for MHC class II (human HLA-DR, DP, and DQ), several peptide candidates were synthesized and examined for activity. The purpose of the study was to determine if synthetic peptides can compete for binding with CLIP peptides as measured with either Fitc anti-human CLIP antibody or, comparatively in the case of biotinylated peptides, with Streptavidin.
# Cell Culture Conditions: The Raji and Daudi cell lines were purchased from American Type Culture Collection, were thawed, and grown in RPMI 1640 medium supplemented with standard supplements, including 10% fetal calf serum, gentamycin, penicillin, streptomycin, sodium pyruvate, HEPES buffer, 1-glutamine, and 2-ME.
# Protocol: Cells were plated into a 12 well plate with 3 mls total volume containing approximately 1.5×10^6/well for Daudi cells and 3.0×10^6/well for Raji cells. Treatment groups included no treatment as control; MKN 3 and MKN 5 at 50 microMolar final concentration based on the reported molarity of the synthesized compounds.
# The cells were incubated at 37° C. in an atmosphere containing 5% CO2 and approximately 92% humidity. The cells were incubated for 4 and 24 hours. At each time point, the cells from that experimental time were harvested and stained for flow cytometric analysis of cell surface expression of CLIP (MHC Class II invariant peptide, human) by using the commercially available (Becton/Dickinson/PHarmingen) anti-human CLIP Fitc. Catalogue #555981 versus Streptavidin.
# Harvested cells were stained using standard staining procedure that called for a 1:100 dilution of Fitc-anti-human CLIP or isotype control versus 1:200 dilution of the commercially prepared Streptavidin. Following staining on ice for 25 minutes, cells were washed with PBS/FCS and resuspended in 100 microliters and added to staining tubes containing 400 microliters of PBS. Samples were acquired and analyzed on a Coulter Excel Flow Cytometer.
# In the Histogram analyses of FIGS. 5-7 the Y axis represents cell number of the 5000 live cells versus the X axis which is a reflection of relative Fitc fluorescence versus Streptavidin-PE (eBioscience, Cat. #12-4317) that will bind with high affinity to cell-bound biotinylated peptides. The distance between the histogram from the isotype control staining versus the histogram reflecting the specific stain and is a measure of level of cell surface CLIP or the biotinylated peptide when stained with Streptavidin on a population of live Raji or Daudi cells as indicated.
# [2] = tested on: CLIP^+ B cells in human PBMC; assay: Peptide replacement of CLIP on R848-activated human PBMC B cells; format: cell-based; details: PBMC of two donors cultured with R848 for 48 hours with peptide
# Description: FIG. 13 depicts TLR activation results in ectopic CLIP expression on human B cells from peripheral blood mononuclear cells (PBMC) cultures. FIG. 13a: human PBMC from five donors were cultured for 24 hours with toll ligands (CpG-ODN, LPS, Pam3Cys, and Poly I:C) and were stained with a pan anti-HLA-DR-FITC antibody (values of isotype controls were subtracted from the specific stains, ΔMFI). FIG. 13b: cells were stained using anti-human CLIP-FITC versus CD19-PE (values of isotype controls were subtracted from the specific stains, ΔMFI). For FIGS. 13a & 13b: nil vs. CpG p=0.06821; nil vs. LPS p=0.0390; nil vs. PAM p=0.0124. FIG. 13c: cells were stained for CLIP-FITC versus CD19-PE as described for FIG. 13b. The data represent the percent of total PBMC that are CLIP+ B cells subsequent to treatment. For FIG. 13c: nil vs. CpG p=0.0058; nil vs. LPS p=0.0254. […]
# PBMC were prepared from a total of seven adult normal donors, five for examining the effects of TLR binding on the percentage of ectopic CLIP^+ B cells and changes in mean fluorescence intensity of the CLIP staining resulting from TLR stimulation with CpG-ODN, LPS, Pam-3-Cys, and Poly I:C. […] Cells were analyzed using either a BD FacsCalibur, for the five samples, or a Coulter FC500 for the two tissue typed samples. […]
sequence,measurement,setting,value
FRIMAVLAS,cell surface bound CLIP,[1]; 4 hours,small decreases in cell surface bound CLIP
same,cell surface bound CLIP,[1]; 24 hours,significant decreases
same,percentage of CLIP^+ B cells and level of CLIP per B cell,[2],reduced the percentage of CLIP^+ B cells and the level of CLIP per B cell to pre-treatment levels
